Laboratory results as given in patent US20140286906A1, “USE OF IGF-1 IN THE MODULATION OF TREG CELL ACTIVITY AND THE TREATMENT AND PREVENTION OF AUTOIMMUNE DISORDERS OR DISEASES” (priority 2011, published 2014).

How the values were obtained:
[1] = tested on: FOXP3 positive cells (CD25+ splenic cells); test: Foxp3 and Ki67 flow cytometric analysis of Treg proliferation; type: cell-based, murine
Method: To determine the effect of IGF-1 in the regulatory subset in vitro (cf. FIG. 4) the number of FOXP3 positive cells is determined by flow cytometric analysis. To analyze other subsets, like the proinflammatory Th1 and Th17 subsets, a similar approach is used but the number of interferon-gamma (Th1) and IL-17 (Th17) positive cells is determined. Additionally, to evaluate the number of proliferating cells at a given moment cells are stained using the intracellular marker Ki67, which is expressed only in cycling cells. The combination of a specific lineage marker (e.g., Foxp3, IFN-g, IL-17) with Ki67 allows for the determination at a given moment of the cells belonging to a certain subset and their proliferative status.
In animal experiments, the population is isolated normally from murine spleen (but also could be isolated from other tissues, like for example but not restricted to bone marrow, adipose tissue, cord blood derived mononuclear cell, thymus, or peripheral blood) and is sorted using different markers (e.g., CD4 and CD25). This population is defined as CD4+CD25+ and includes the regulatory cells. This population is then treated in the above-mentioned medium in the presence of IGF-1. After several days of culture part of the cells are counted, fixed, permeabilized and analyzed by flow cytometry using an anti-FOXP3 antibody in combination with the same extracellular markers (CD4 and CD25). This allows for the determination of the absolute number of FOXP3 positive cells present in the culture.
To further define the proliferative effects of IGF-1, FACS-sorted CD25+ splenic cells (>98% purity) after two days in culture with recombinant IGF-1 were fixed, permeabilized and stained with antibodies against FOXP3 and Ki67. Foxp3 is a transcription factor that orchestrates the cellular and molecular programs involved in T regulatory function. Ki67 is a nuclear antigen present in proliferating cells. […] After three days of culture the number of FOXP3 positive cells was increased four-fold and the number of regulatory T cells proliferating approximately six-fold.

[2] = tested on: CD4+CD25+ splenic cells; test: flow cytometry of activation and homing markers on CD4+CD25+ splenic cells; type: cell-based, murine; details: Deguelin 1 μM; Ly-294,002 and PD.98,059 10 μM (FIG. 10)
Text: The expression of certain markers on the surface of the cell is correlated with the degree of activation of the cells and also controls their trafficking and localization and consequently the compartmentalization of the immune responses. This is again measured using flow cytometric methods. For example, cells expressing high levels of CD62L preferentially migrate to secondary lymphoid tissues. However, as these cells enter the periphery (for example when they travel to affected tissues during an autoimmune process) they rapidly acquire an activated phenotype and express higher levels of CD44. Thus upregulation of CD44 is associated with a higher proliferation rate. […] The importance of this observation comes from the fact that in order to exert their suppressive properties, Tregs need to migrate to the affected tissues first. Therefore, IGF-1 not only induces activation of proliferation but also promotes their correct localization.
Finally, the inventors analyzed the ability of IGF-1 to alter the homing properties of the regulatory T cell subset. In 2003, Fisson et al. defined two distinct population of regulatory T cells in homeostatic conditions. In the steady state, some Tregs remain quiescent for long periods of time, whereas the other Treg population divides extensively and express multiple activation markers. […] This pattern of change is also consistent with a more activated phenotype. On one hand, CD44^hiCD62L^lo Treg populations, but not their CD44^loCD62L^hi counterparts, constantly incorporate BrdU, a synthetic analog of thymidine, into newly synthesized DNA in lymphoid tissues (Matsushima and Takashima, 2010). On the other hand, higher levels of CD62L have been associated with a higher capacity of Tregs to migrate to the lymph nodes, while lower levels allows them to migrate to sites of inflammation (Fisson et al., 2003; Bromley et al., 2008). Thus, T regulatory cells expressing lower levels of CD62L would have a higher inflammation-seeking capacity, which has been associated with higher suppressive potential in various inflammation models (Huehn et al., 2005). […] One, IGF-1 is able to activate a complex pathway resulting in Treg activation leading to proliferation and to selective homing and migration to the sites of inflammation. The second conclusion comes from the observation that sequential migration from blood to the target tissue and then to draining lymph nodes is required for nTreg to differentiate and execute fully their suppressive function, by inhibiting dendritic cells in the peripheral tissue and T effector cell responses in dLN and periphery (Zhang et al., 2009). Thus, IGF-1 treatment not only results in higher numbers of T regulatory cells but also in altering the trafficking of these cells to achieve a higher suppressive effect. […]

| SMILES | effect of inhibitor on IGF-1 effect on Treg proliferation ([1]; inhibitor 1 μM) | sensitivity of IGF-1 induced CD62L and CD44 changes to pathway inhibitor [2] | effect of inhibitor on IGF-1 effect on Treg proliferation ([1]; inhibitor 10 μM) |
| --- | --- | --- | --- |
| COc1cc2c(cc1OC)[C@@H]1C(=O)c3ccc4c(c3O[C@@H]1CO2)C=CC(C)(C)O4 [Deguelin, reference compound] | partially blocked | more sensitive |  |
| O=c1cc(N2CCOCC2)oc2c(-c3ccccc3)cccc12 [Ly-294,002, reference compound] |  |  | sensitive |
| COc1cccc(-c2cc(=O)c3ccccc3o2)c1N [PD.98,059, reference compound] |  |  | partially blocked |
